# Article PMC3124571 (Biochemical pharmacology, 2011)
# Read-outs that look alike come from different tables or passages of the source.
# Tests used:
# [1] = tested on: EB formation (bupropion carbonyl reduction); carbonyl reductase (menadione), aldo-ketoreductase (flufenamic acid); assay: in vitro; conditions: baboon (Papio cynocephalus), placental microsomes, probe bupropion 30 µM (≈Km)
# [2] = tested on: TB formation (bupropion carbonyl reduction); carbonyl reductase (menadione), aldo-ketoreductase (flufenamic acid); assay: in vitro; conditions: baboon (Papio cynocephalus), placental microsomes, probe bupropion 30 µM (≈Km)
# [3] = tested on: EB formation (bupropion carbonyl reduction); aldo-ketoreductase (flufenamic acid); assay: in vitro; conditions: baboon (Papio cynocephalus), liver microsomes, probe bupropion 30 µM (≈Km)
# [4] = tested on: TB formation (bupropion carbonyl reduction); carbonyl reductase (menadione), aldo-ketoreductase (flufenamic acid); assay: in vitro; conditions: baboon (Papio cynocephalus), liver microsomes, probe bupropion 30 µM (≈Km)
# [5] = Biotransformation of bupropion by baboon hepatic microsomes; conditions: female, baboon (Papio cynocephalus), liver microsomes, pH 7.4, apparent Km
# [6] = tested on: baboon hepatic microsomes; assay: as above
# [7] = Biotransformation of bupropion by baboon placental microsomes; conditions: baboon (Papio cynocephalus), pH 7.4, apparent Km
# [8] = target: carbonyl-reducing enzymes of baboon hepatic microsomes; format: biochemical; conditions: read-out: IC50 (TB formation, hepatic microsomes); n = 3
# [9] = target: carbonyl-reducing enzymes of baboon placental microsomes; format: biochemical; conditions: read-out: IC50 (TB formation, placental microsomes)
# [10] = target: carbonyl-reducing enzymes of baboon placental microsomes; format: biochemical; conditions: read-out: IC50 (EB formation, placental microsomes)
# [11] = tested on: OH-BUP formation by baboon hepatic microsomes
# [12] = tested on: TB and EB formation by baboon placental microsomes; conditions: placental microsomes 1 mg/ml, bupropion 30 µM, 40 min; menadione 100µM, 18β-GA 0.1µM, flufenamic acid 5µM, barbital, 4-methylpyrazole, dicumarol 500µM
# [13] = tested on: TB and EB formation by baboon hepatic microsomes; conditions: hepatic microsomes 1 mg/ml, bupropion 30 µM, 40 min; menadione 100µM, 18β-GA 0.1µM, flufenamic acid 5µM, barbital, 4-methylpyrazole, dicumarol 500µM
structure (smiles),measurement,setting,value
O=C(O)c1ccccc1Nc1cccc(C(F)(F)F)c1 [flufenamic acid],IC50 at 40 min,[1],5.6 µM
same,inhibition at 40 min,[1],40%
same,IC50 at 40 min,[2],9.9 µM
same,inhibition at 40 min,[2],40%
same,IC50 at 40 min,[3],7.7 µM
same,IC50 at 40 min,[4],11.4 µM
same,inhibition at 40 min,[4],40%
CC(NC(C)(C)C)C(=O)c1cccc(Cl)c1 (stereo not shown) [bupropion],Km at 30 min,"[5]; hydroxylation of bupropion to OH-BUP, bupropion 10–400µM",36 ± 6 µM
same,Km at 30 min,[5]; reduction of bupropion to EB,32 ± 3 µM
same,Km at 30 min,[5]; reduction of bupropion to TB,28 ± 2 µM
same,"Vmax, EB formation",[6],46 ± 8 pmol mgprotein^−1 min^−1
same,"Vmax, TB formation",[6],116 ± 19 pmol mgprotein^−1 min^−1
same,Km at 40 min,[7]; reduction of bupropion to EB,32 ± 14 µM
same,Km at 40 min,[7]; reduction of bupropion to TB,20 ± 14 µM
"CC1(C)[C@@H](O)CC[C@]2(C)[C@H]3C(=O)C=C4[C@@H]5C[C@@](C)(C(=O)O)CC[C@]5(C)CC[C@@]4(C)[C@]3(C)CC[C@@H]12 [18β-GA, 18β-glycyrrhetinic acid]",IC50,[8],0.015 µM
same,IC50,[9],0.025 µM
same,IC50,[10],0.022 µM
C=C(C)[C@@H]1CCC2=CC(=O)C[C@@H](C)[C@]2(C)C1 [(+)-nootkatone],inhibition,[11],10 to 15%
CC1=CC(=O)c2ccccc2C1=O [menadione],IC50 at 40 min,[1],30.3 µM
same,IC50 at 40 min,[2],27.9 µM
same,IC50 at 40 min,[4],47 µM
CC1(C)[C@@H](O)CC[C@]2(C)[C@H]3C(=O)C=C4[C@@H]5C[C@@](C)(C(=O)O)CC[C@]5(C)CC[C@@]4(C)[C@]3(C)CC[C@@H]12 [18β-glycyrrhetinic acid],inhibition of EB formation,[12],80%
same,inhibition of TB formation,[12],80%
same,inhibition of TB formation,[13],80%
CCC1(CC)C(=O)NC(=O)NC1=O [barbital],inhibition of EB formation,[12],did not affect
same,inhibition of TB formation,[12],did not affect
same,inhibition of EB formation,[13],did not affect
same,inhibition of TB formation,[13],did not affect
